According to the supplement of paper PMC8671470:

Legend:
Settings in all cases: 72 h
KG-1 = test: cell viability (% survival relative to DMSO control, bortezomib = 0%); higher = less cytotoxic
Procedure, shortened: (§1)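 Fifteen myeloid leukaemia cell lines (10 AML, 5 CML) were seeded at a density titrated to the linear growth range into 384-well plates pre-printed with compounds at 1, 10, 100, 1000 or 10000 nM in duplicate. Plates were incubated for 72 h at 37 °C with 5% CO2. Viability was then read by CellTiter-Glo luminescence. Each value is percent survival averaged over the duplicates, with vehicle set to 100% and a 10 µM positive control to 0%.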

K-562 = test: as above
Procedure, shortened: as §1

SHI-1 = test: as above
Procedure, shortened: as §1

HEL = test: as above
Procedure, shortened: as §1

ML-2 = test: as above
Procedure, shortened: as §1

MOLM-13 = test: as above
Procedure, shortened: as §1

THP-1 = test: as above
Procedure, shortened: as §1

KU-812 = test: as above
Procedure, shortened: as §1

Mono-Mac-6 = test: as above
Procedure, shortened: as §1

BV-173 = test: as above
Procedure, shortened: as §1

HL-60 [1] = test: as above
Procedure, shortened: as §1

KCL-22 [2] = test: as above
Procedure, shortened: as §1

LAMA-84 = test: as above
Procedure, shortened: as §1

MV4-11 = test: as above
Procedure, shortened: as §1

NOMO-1 = test: as above
Procedure, shortened: as §1

KCL-22 [3] = system: KCL-22
Procedure, shortened: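 Fifteen myeloid leukaemia lines were incubated for 72 h at 37 °C with 5% CO2 across five tenfold doses from 1 to 10,000 nM, in duplicate. ATP luminescence was normalised to vehicle and to a positive control at 10 µM and fitted with a four-parameter log-logistic model. The IC50 came from these dose–response fits.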

HL-60 [4] = test: cell viability (% survival relative to DMSO control); higher = less cytotoxic
Procedure, shortened: (§2)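 Area under the curve, where listed, was derived from four-parameter log-logistic fits with drc and PharmacoGx. These fits used CellTiter-Glo viability from HL-60 cells in RPMI 1640 with 10% FBS, normalised to DMSO wells and wells holding 10 μM proteasome inhibitor. The full library was rescreened on 384-well plates in duplicate at five tenfold concentrations, 1–10,000 nM, with DMSO or 100 nM of one of three metabolic inhibitors, for 72 h at 37 °C, 5% CO2.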

HL-60 [5] = test: area under dose-response curve (viability, 1 nM-10 uM) (fraction (0-1)); higher = more sensitive
Procedure, shortened: as §2

C#CCN[C@@H]1CCc2ccccc21 [Rasagiline]
Settings | area under dose-response curve, co-treatment: AZD3965 100 nM | area under dose-response curve, co-treatment: DMSO vehicle | area under dose-response curve, co-treatment: GSK2194069 100 nM | area under dose-response curve, co-treatment: pictilisib 100 nM | cell viability, 1 nM [%] | cell viability, 10 nM [%] | cell viability, 100 nM [%] | cell viability, 1000 nM [%] | cell viability, 10000 nM [%]
BV-173 | – | – | – | – | 92.1 | 104 | 111 | 93.6 | 92.4
HEL | – | – | – | – | 118 | 115 | 117 | 90.1 | 135
HL-60 [1] | – | – | – | – | 95.8 | 86.6 | 96.9 | 76.2 | 135
HL-60 [5] | < 0.0301 | < 0.0301 | < 0.0301 | < 0.0301 | – | – | – | – | –
K-562 | – | – | – | – | 103 | 100 | 100 | 87.5 | 84.2
KCL-22 [2] | – | – | – | – | 80.3 | 108 | 98.4 | 89.7 | 135
KG-1 | – | – | – | – | 88.3 | 116 | 98.5 | 89.8 | 114
KU-812 | – | – | – | – | 94.1 | 104 | 97.1 | 90.3 | 111
LAMA-84 | – | – | – | – | 98.2 | 106 | 106 | 91.8 | 97.2
ML-2 | – | – | – | – | 89.9 | 104 | 105 | 87.2 | 104
MOLM-13 | – | – | – | – | 93.9 | 109 | 111 | 95.9 | 111
MV4-11 | – | – | – | – | 97.8 | 104 | 108 | 91.7 | 96
Mono-Mac-6 | – | – | – | – | 92.4 | 105 | 101 | 80.9 | 100
NOMO-1 | – | – | – | – | 95.2 | 103 | 103 | 93.2 | 102
SHI-1 | – | – | – | – | 97.8 | 103 | 100 | 95.3 | 117
THP-1 | – | – | – | – | 102 | 102 | 103 | 96 | 101

Settings | IC50 (cell viability) [µM]
KCL-22 [3] | > 10

cell viability [%], HL-60 [4]
Settings | 0.001 µM | 0.01 µM | 0.1 µM | 1 µM | 10 µM
co-treatment: AZD3965 100 nM | 102 | 96.6 | 100 | 97.1 | 99.9
co-treatment: DMSO vehicle | 101 | 102 | 102 | 100.1 | 95.4
co-treatment: GSK2194069 100 nM | 105 | 107 | 100 | 102 | 99.9
co-treatment: pictilisib 100 nM | 89.6 | 87.5 | 103 | 95.6 | 102

O=C(Cc1cccc(OC(F)(F)F)c1)Nc1ccc(CCCCc2nnc(NC(=O)Cc3ccccn3)s2)nn1 [CB-839]
Settings | area under dose-response curve, co-treatment: AZD3965 100 nM | area under dose-response curve, co-treatment: DMSO vehicle | area under dose-response curve, co-treatment: GSK2194069 100 nM | area under dose-response curve, co-treatment: pictilisib 100 nM | cell viability, 1 nM [%] | cell viability, 10 nM [%] | cell viability, 100 nM [%] | cell viability, 1000 nM [%] | cell viability, 10000 nM [%]
BV-173 | – | – | – | – | 133 | 82.2 | 53.7 | 59.8 | 18.5
HEL | – | – | – | – | 117 | 85.6 | 99.3 | 73.7 | 64.8
HL-60 [1] | – | – | – | – | 73.4 | 114 | 85.6 | 40.6 | 50.2
HL-60 [5] | 0.0553 | < 0.0301 | 0.0569 | 0.0991 | – | – | – | – | –
K-562 | – | – | – | – | 145 | 105 | 85.3 | 86 | 77.7
KCL-22 [2] | – | – | – | – | 116 | 90.4 | 79.5 | 55.4 | 43.8
KG-1 | – | – | – | – | 98.4 | 81.7 | 80.1 | 43 | 45.4
KU-812 | – | – | – | – | 101 | 81.8 | 72.2 | 67.2 | 66.4
LAMA-84 | – | – | – | – | 116 | 85.8 | 66.5 | 66.3 | 58.4
ML-2 | – | – | – | – | 111 | 89.8 | 94.3 | 91.4 | 89.9
MOLM-13 | – | – | – | – | 123 | 102 | 116 | 59.8 | 73.7
MV4-11 | – | – | – | – | 108 | 86 | 71.2 | 48.1 | 51.2
Mono-Mac-6 | – | – | – | – | 102 | 84.5 | 85 | 78.3 | 82
NOMO-1 | – | – | – | – | 103 | 91.4 | 76.5 | 79.2 | 68.2
SHI-1 | – | – | – | – | 109 | 103 | 99.7 | 74.9 | 68.4
THP-1 | – | – | – | – | 99.4 | 96.7 | 88.9 | 82.9 | 83.7

Settings | IC50 (cell viability) [µM]
KCL-22 [3] | 0.822

cell viability [%], HL-60 [4]
Settings | 0.001 µM | 0.01 µM | 0.1 µM | 1 µM | 10 µM
co-treatment: AZD3965 100 nM | 105 | 103.64 | 103 | 93.2 | 71.4
co-treatment: DMSO vehicle | 97.2 | 102 | 97.9 | 93.6 | 88.7
co-treatment: GSK2194069 100 nM | 103 | 94.8 | 97.4 | 94.1 | 77.9
co-treatment: pictilisib 100 nM | 100.52 | 87.5 | 78.3 | 71.08 | 54

COc1cc(C2Oc3cc(C4Oc5cc(O)cc(O)c5C(=O)C4O)ccc3OC2CO)ccc1O (stereo not given) [Silibinin]
Settings | area under dose-response curve, co-treatment: AZD3965 100 nM | area under dose-response curve, co-treatment: DMSO vehicle | area under dose-response curve, co-treatment: GSK2194069 100 nM | area under dose-response curve, co-treatment: pictilisib 100 nM | cell viability, 1 nM [%] | cell viability, 10 nM [%] | cell viability, 100 nM [%] | cell viability, 1000 nM [%] | cell viability, 10000 nM [%]
BV-173 | – | – | – | – | 90.9 | 93.5 | 110 | 95.2 | 87.2
HEL | – | – | – | – | 101 | 100 | 115 | 89.2 | 103
HL-60 [1] | – | – | – | – | 91.9 | 92.9 | 96.9 | 105 | 104
HL-60 [5] | < 0.0301 | < 0.0301 | < 0.0301 | < 0.0301 | – | – | – | – | –
K-562 | – | – | – | – | 95 | 97.7 | 102 | 94.5 | 76.4
KCL-22 [2] | – | – | – | – | 99.3 | 95.3 | 84.2 | 102 | 95.1
KG-1 | – | – | – | – | 91.3 | 104 | 99.2 | 94.3 | 93.8
KU-812 | – | – | – | – | 96.5 | 93.1 | 108 | 94.1 | 90.7
LAMA-84 | – | – | – | – | 98.1 | 102 | 110 | 95.6 | 95
ML-2 | – | – | – | – | 93 | 99.2 | 87.2 | 95.8 | 91.1
MOLM-13 | – | – | – | – | 99.8 | 103 | 103 | 106 | 103
MV4-11 | – | – | – | – | 100 | 95.7 | 97.2 | 110 | 98.8
Mono-Mac-6 | – | – | – | – | 96.4 | 91.2 | 94.1 | 99 | 98.9
NOMO-1 | – | – | – | – | 95.3 | 96.4 | 99.8 | 101 | 99.7
SHI-1 | – | – | – | – | 102 | 107 | 89.3 | 98.6 | 105
THP-1 | – | – | – | – | 99.3 | 95.5 | 107 | 98.9 | 95.9

Settings | IC50 (cell viability) [µM]
KCL-22 [3] | > 10

cell viability [%], HL-60 [4]
Settings | 0.001 µM | 0.01 µM | 0.1 µM | 1 µM | 10 µM
co-treatment: AZD3965 100 nM | 107 | 99.1 | 107 | 102 | 102
co-treatment: DMSO vehicle | 100 | 100.8 | 104 | 102 | 97.72
co-treatment: GSK2194069 100 nM | 107 | 101 | 105 | 105 | 97.3
co-treatment: pictilisib 100 nM | 103 | 103 | 107 | 106 | 95.8
